From patent US20220062240A1, “METHODS OF TREATING CANCER USING A CLK INHIBITOR” (BioSplice Therapeutics, Inc., priority 2018, published 2022)
Where two headings read alike, the source gives them in different places.

Key:
CLK2 = target: T1, CLK2 (Homo sapiens, UniProt P49760); experiment: CLK2 kinase activity assay (Z-lyte, Ser/Thr 6 peptide); assay type: biochemical; conditions: recombinant CLK2 kinase, ATP 60 μM; read-out: EC50
T1 construct: purchased Thermo Fisher (Life Technologies), Z'-LYTE Kinase Assay Kits
Description: All reactions were performed in duplicate.

BT-549 = experiment: CellTiter-Glo Viability Assay, breast cancer; assay type: cell-based; conditions: Homo sapiens, 96 h; BT-549, breast cancer, four days; read-out: EC50
Description: (§1) Fifty-one human cancer cell lines (breast cancer (8 cell lines), colorectal cancer (6 cell lines), haematopoietic & lymphoid tumors (13 cell lines), liver cancer (3 cell lines), lung cancer (4 cell lines), ovarian cancer (4 cell lines), pancreatic cancer (8 cell lines), and prostate cancer (5 cell lines)) were tested to determine the effects of representative compounds of Formulas (I)-(XII) on cellular proliferation, as evaluated using the CellTiter-Glo® Viability Assay.
(§2) For the Cell Viability Assays, cells were plated at 300-3,000 cells/well in 384-well plates in their respective media containing 1% Penicillin-Streptomycin and incubated for four days at 37° C. and 5% CO2. Twenty-eight replicates of DMSO-treated cells served as controls and cells treated with compound were performed in duplicate.
(§3) After incubation, 10 μL of CellTiter-Glo® (Promega) was added to each well allowed to incubate for approximately 12 minutes. This reagent results in cell lysis and generation of a luminescent signal proportional to the amount of ATP present. The amount of ATP is directly proportional to the number of metabolically active, viable cells present in culture. The CellTiter-Glo® Assay generates a luminescent signal, produced by the luciferase reaction (Promega.com).
(§4) After incubation, the luminescence signal was read using an EnVision™ Multilabel Plate Reader (Perkin Elmer). Dose-response curves were generated and EC50 concentration values were calculated using Dotmatics' Studies Software (Bishops Stortford, UK).

CAMA1 = experiment: CellTiter-Glo Viability Assay, breast cancer; assay type: cell-based; conditions: Homo sapiens, CAMA-1, 96 h; CAMA1, breast cancer, four days; read-out: EC50
Description: as §1, §2, §3, §4

DU4475 = experiment: CellTiter-Glo Viability Assay, breast cancer; assay type: cell-based; conditions: Homo sapiens, DU-4475, 96 h; DU4475, breast cancer, four days; read-out: EC50
Description: as §1, §2, §3, §4

HCC1599 = experiment: CellTiter-Glo Viability Assay, breast cancer; assay type: cell-based; conditions: Homo sapiens, 96 h; HCC1599, breast cancer, four days; read-out: EC50
Description: as §1, §2, §3, §4

MCF7 = experiment: CellTiter-Glo Viability Assay, breast cancer; assay type: cell-based; conditions: Homo sapiens, 96 h; MCF7, breast cancer, four days; read-out: EC50
Description: as §1, §2, §3, §4

MDA-MB-231-Luc = experiment: CellTiter-Glo Viability Assay, breast cancer; assay type: cell-based; conditions: Homo sapiens, 96 h; MDA-MB-231-Luc, breast cancer, four days; read-out: EC50
Description: as §1, §2, §3, §4

T47D = experiment: CellTiter-Glo Viability Assay, breast cancer; assay type: cell-based; conditions: Homo sapiens, 96 h, breast cancer, four days, read-out: EC50
Description: as §1, §2, §3, §4

all 50 cell lines = experiment: CellTiter-Glo Viability Assay, average across all cell lines; assay type: cell-based; conditions: Homo sapiens; across all 50 cell lines; read-out: average EC50 for inhibition of cancer cell proliferation
Description: as §1, §2, §3, §4

[1] = system: colorectal cancer (6 cell lines); experiment: CellTiter-Glo Viability Assay, colorectal cancer; assay type: cell-based; conditions: Homo sapiens, inhibition of cancer cell proliferation
Description: as §1, §2, §3, §4

[2] = system: haematopoietic & lymphoid tumors (13 cell lines); experiment: CellTiter-Glo Viability Assay, haematopoietic & lymphoid tumors; assay type: cell-based; conditions: Homo sapiens, inhibition of cancer cell proliferation
Description: as §1, §2, §3, §4

[3] = system: liver cancer (3 cell lines); experiment: CellTiter-Glo Viability Assay, liver cancer; assay type: cell-based; conditions: Homo sapiens, inhibition of cancer cell proliferation
Description: as §1, §2, §3, §4

[4] = system: lung cancer (4 cell lines); experiment: CellTiter-Glo Viability Assay, lung cancer; assay type: cell-based; conditions: Homo sapiens, inhibition of cancer cell proliferation
Description: as §1, §2, §3, §4

[5] = system: ovarian cancer (4 cell lines); experiment: CellTiter-Glo Viability Assay, ovarian cancer; assay type: cell-based; conditions: Homo sapiens, inhibition of cancer cell proliferation
Description: as §1, §2, §3, §4

[6] = system: pancreatic cancer (8 cell lines); experiment: CellTiter-Glo Viability Assay, pancreatic cancer; assay type: cell-based; conditions: Homo sapiens, inhibition of cancer cell proliferation
Description: as §1, §2, §3, §4

[7] = system: prostate cancer (5 cell lines); experiment: CellTiter-Glo Viability Assay, prostate cancer; assay type: cell-based; conditions: Homo sapiens
Description: as §1, §2, §3, §4

CLK3 = CLK3 (Homo sapiens, UniProt P49761); experiment: CLK3 kinase activity assay (Z-lyte, Ser/Thr 18 peptide)
Chain of CLK3 (P49761 whole entry): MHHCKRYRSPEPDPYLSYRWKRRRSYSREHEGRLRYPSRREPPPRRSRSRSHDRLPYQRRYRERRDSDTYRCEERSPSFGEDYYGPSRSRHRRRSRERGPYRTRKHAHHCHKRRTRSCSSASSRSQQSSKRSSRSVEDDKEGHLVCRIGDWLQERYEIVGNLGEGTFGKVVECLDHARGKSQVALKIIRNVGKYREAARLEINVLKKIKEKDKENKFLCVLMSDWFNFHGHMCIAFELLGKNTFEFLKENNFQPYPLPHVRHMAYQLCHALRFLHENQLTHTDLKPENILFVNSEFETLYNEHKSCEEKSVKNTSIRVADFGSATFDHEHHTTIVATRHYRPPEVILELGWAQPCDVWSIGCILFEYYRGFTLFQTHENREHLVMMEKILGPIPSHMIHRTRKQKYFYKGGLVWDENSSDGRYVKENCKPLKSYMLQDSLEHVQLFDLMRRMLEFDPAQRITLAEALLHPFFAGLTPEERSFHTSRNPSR

T1 sequence (P49760 whole entry): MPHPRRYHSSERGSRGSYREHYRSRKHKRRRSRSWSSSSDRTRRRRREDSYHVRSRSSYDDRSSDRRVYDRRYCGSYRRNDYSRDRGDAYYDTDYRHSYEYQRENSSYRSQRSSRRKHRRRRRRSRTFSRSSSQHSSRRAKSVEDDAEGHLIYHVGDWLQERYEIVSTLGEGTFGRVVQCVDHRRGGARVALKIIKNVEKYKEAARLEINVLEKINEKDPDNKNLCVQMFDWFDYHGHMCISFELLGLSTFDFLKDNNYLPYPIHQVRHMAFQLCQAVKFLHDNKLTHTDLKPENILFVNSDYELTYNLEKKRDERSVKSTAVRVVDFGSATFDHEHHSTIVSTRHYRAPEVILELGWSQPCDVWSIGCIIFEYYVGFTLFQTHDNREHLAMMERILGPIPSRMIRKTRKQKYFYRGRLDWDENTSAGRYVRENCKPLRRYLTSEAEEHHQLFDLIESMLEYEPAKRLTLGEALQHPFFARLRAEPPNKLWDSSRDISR

CN1CCN(c2cc(C(=O)Nc3cc4cc(-c5nnc(N(C)C)s5)ccc4cn3)ccn2)CC1 [Compound 84]
EC50 (CLK2): 2.9 nM
EC50 (BT-549): 1240 nM
EC50 (CAMA1): 1220 nM
EC50 (DU4475): 640 nM
EC50 (HCC1599): 1130 nM
EC50 (MCF7): 2560 nM
EC50 (MDA-MB-231-Luc): 1100 nM
EC50 (T47D): 1430 nM
EC50 (all 50 cell lines): 1040 nM
EC50 ([1]; HCT-116, HCT116 cell line, read-out: Colorectal cancer, EC50 (μM) HCT116): 0.396 µM
EC50 ([1]; HT-29, HT29 cell line, read-out: Colorectal cancer, EC50 (μM) HT29): 1.13 µM
EC50 ([1]; SW-620, SW620 cell line, read-out: Colorectal cancer, EC50 (μM) SW620): 0.26 µM
EC50 ([1]; DLD-1 cell line, read-out: Colorectal cancer, EC50 (μM) DLD-1): 0.658 µM
EC50 ([1]; SW48 cell line, read-out: Colorectal cancer, EC50 (μM) SW48): 0.185 µM
EC50 ([1]; SW480 cell line, read-out: Colorectal cancer, EC50 (μM) SW480): 0.551 µM
EC50 ([2]; DND41, DND-41 cell line, read-out: Haematopoietic & Lymphoid tumors, EC50 (μM) DND-41): 0.914 µM
EC50 ([2]; MV4-11, MV-4-11 cell line, read-out: Haematopoietic & Lymphoid tumors, EC50 (μM) MV-4-11): 0.316 µM
EC50 ([2]; Rec1, REC-1 cell line, read-out: Haematopoietic & Lymphoid tumors, EC50 (μM) REC-1): 0.23 µM
EC50 ([2]; SU-DHL-4, SUDHL4 cell line, read-out: Haematopoietic & Lymphoid tumors, EC50 (μM) SUDHL4): 0.972 µM
EC50 ([2]; HL-60 cell line, read-out: Haematopoietic & Lymphoid tumors, EC50 (μM) HL-60): 2.59 µM
EC50 ([2]; JM1 cell line, read-out: Haematopoietic & Lymphoid tumors, EC50 (μM) JM1): 0.216 µM
EC50 ([2]; JURKAT, Clone E6-1 cell line, read-out: Haematopoietic & Lymphoid tumors, EC50 (μM) JURKAT, Clone E6-1): 1.62 µM
EC50 ([2]; JeKo-1 cell line, read-out: Haematopoietic & Lymphoid tumors, EC50 (μM) JeKo-1): 0.319 µM
EC50 ([2]; KASUMI-1 cell line, read-out: Haematopoietic & Lymphoid tumors, EC50 (μM) KASUMI-1): 0.842 µM
EC50 ([2]; Loucy cell line, read-out: Haematopoietic & Lymphoid tumors, EC50 (μM) Loucy): 0.78 µM
EC50 ([2]; MOLT-4 cell line, read-out: Haematopoietic & Lymphoid tumors, EC50 (μM) MOLT-4): 0.965 µM
EC50 ([2]; TF-1 cell line, read-out: Haematopoietic & Lymphoid tumors, EC50 (μM) TF-1): 1.31 µM
EC50 ([2]; TOLEDO cell line, read-out: Haematopoietic & Lymphoid tumors, EC50 (μM) TOLEDO): 0.3 µM
EC50 ([3]; SNU-398, SNU398 cell line, read-out: Liver cancer, EC50 SNU398): 234 nM
EC50 ([3]; HEPG2 cell line, read-out: Liver cancer, EC50 HEPG2): 734 nM
EC50 ([3]; PLC/PRF/5 cell line, read-out: Liver cancer, EC50 PLC/PRF/5): 1930 nM
EC50 ([4]; A-427, A427 cell line, read-out: Lung cancer, EC50 (μM) A427): 0.856 µM
EC50 ([4]; HCC78, HCC-78 cell line, read-out: Lung cancer, EC50 (μM) HCC-78): 1.47 µM
EC50 ([4]; NCI-H460 cell line, read-out: Lung cancer, EC50 (μM) NCI-H460): 1.26 µM
EC50 ([4]; NCI-H522 cell line, read-out: Lung cancer, EC50 (μM) NCI-H522): 0.553 µM
EC50 ([5]; PA-1, PA1 cell line, read-out: Ovarian cancer, EC50 (μM) PA1): 0.643 µM
EC50 ([5]; TOV112D, TOV-112D cell line, read-out: Ovarian cancer, EC50 (μM) TOV-112D): 0.61 µM
EC50 ([5]; OV-90 cell line, read-out: Ovarian cancer, EC50 (μM) OV-90): 1.64 µM
EC50 ([5]; OVCAR-3 cell line, read-out: Ovarian cancer, EC50 (μM) OVCAR-3): 0.446 µM
EC50 ([6]; BXPC-3, BxPC3 cell line, read-out: Pancreatic cancer, EC50 BxPC3): 2070 nM
EC50 ([6]; CAPAN-1, Capan1 cell line, read-out: Pancreatic cancer, EC50 Capan1): 1120 nM
EC50 ([6]; Capan-2, Capan2 cell line, read-out: Pancreatic cancer, EC50 Capan2): 1290 nM
EC50 ([6]; MIA PaCa-2 cell line, read-out: Pancreatic cancer, EC50 MIA PaCa-2): 461 nM
EC50 ([6]; PANC 05.04 cell line, read-out: Pancreatic cancer, EC50 PANC 05.04): 1190 nM
EC50 ([6]; PANC-1 cell line, read-out: Pancreatic cancer, EC50 PANC-1): 1830 nM
EC50 ([6]; UPAFII cell line, read-out: Pancreatic cancer, EC50 UPAFII): 593 nM
EC50 ([7]; DU-145, read-out: Prostate cancer EC50 Du-145): 1040 nM
EC50 ([7]; PC-3, PC3 cell line, inhibition of cancer cell proliferation, read-out: Prostate cancer EC50 PC3): 848 nM
EC50 ([7]; 22Rv1 cell line, inhibition of cancer cell proliferation, read-out: Prostate cancer EC50 22Rv1): 847 nM
EC50 ([7]; LNCap clone FGC cell line, inhibition of cancer cell proliferation, read-out: Prostate cancer EC50 LNCap clone FGC): 1540 nM
EC50 ([7]; VCaP (Sigma) cell line, inhibition of cancer cell proliferation, read-out: Prostate cancer EC50 VCaP (Sigma)): 3500 nM
EC50 (CLK3): 27.2 nM
